For 59 molecules, IC50 results are on record in US20250059174A1, “Pharmaceutical Compounds and Compositions as C-Kit Kinase Inhibitors” (Enanta Pharmaceuticals, Inc., priority 2023, published 2025).

pIC50: −log10 of the molar value.

For this test, the target named is Recombinant human c-KIT kinase (Homo sapiens (Human), UniProt P10721). In words: c-KIT kinase chemiluminescence assay (ADP-Glo). The following applies: ATP 50 μM. In kind it is biochemical. The procedure: The c-KIT Kinase Enzyme System (V4498) and ADP-Glo™ Kinase Assay kit (V6930) were purchased from Promega (Madison, WI). DMSO (D2650) was purchased from Sigma-Aldrich (Burlington, MA).
Kinase Reaction: The kinase assay was based on the recommended protocol by c-KIT Kinase Enzyme System from Promega. Recombinant human c-KIT kinase in 3 μL of assay buffer (40 mM Tris pH 7.5, 20 mM MgCl2, 0.1 mg/mL BSA and 50 μM DTT) was added to the test or high control wells and 3 μL of assay buffer was added to the low control wells. The microplate was centrifuged at 800 rotations per minute (rpm) for 60 s and incubated at room temperature (RT) for 30 min. Next, 2 μL of buffered ATP and polyEY substrate solution was added to all wells. The microplate was centrifuged at 800 rpm for 60 s and incubated at RT for 2 h.
ADP detection with ADP-Glo™ Kinase Assay: After the kinase reaction incubation, 5 μL of ADP-Glo™ reagent was added to all wells. The microplate was centrifuged at 800 rpm for 60 s and incubated at RT for 40 min. Ten microliter (10 μL) of Kinase Detection Reagent (Luciferin-Luciferase system) was then added to all wells. The microplate was centrifuged at 800 rpm for 60 s and incubated at RT for 60 min. Kinase activity was measured as increase in luminescence at RT in an Envision plate reader equipped with 560 nm filters and operating in endpoint mode. Data Analysis: Endpoint chemiluminescence from high and low control wells were used to calculate normalized c-KIT activity at various concentrations of test compounds. The normalized activities were fitted to inhibitor-versus-normalized response fit in GraphPad Prism 7 to determine half-maximal inhibitory concentration (IC50) and hill coefficient values (H).
Where I is the inhibitor concentration and H is the Hill coefficient.
In general terms: ADP-Glo first removes unused ATP, then detects ADP through luciferase.

The term pIC50 denotes the negative decadic logarithm of the IC50, by convention in mol/L.

Recombinant human c-KIT kinase, sequence (P10721 26-976): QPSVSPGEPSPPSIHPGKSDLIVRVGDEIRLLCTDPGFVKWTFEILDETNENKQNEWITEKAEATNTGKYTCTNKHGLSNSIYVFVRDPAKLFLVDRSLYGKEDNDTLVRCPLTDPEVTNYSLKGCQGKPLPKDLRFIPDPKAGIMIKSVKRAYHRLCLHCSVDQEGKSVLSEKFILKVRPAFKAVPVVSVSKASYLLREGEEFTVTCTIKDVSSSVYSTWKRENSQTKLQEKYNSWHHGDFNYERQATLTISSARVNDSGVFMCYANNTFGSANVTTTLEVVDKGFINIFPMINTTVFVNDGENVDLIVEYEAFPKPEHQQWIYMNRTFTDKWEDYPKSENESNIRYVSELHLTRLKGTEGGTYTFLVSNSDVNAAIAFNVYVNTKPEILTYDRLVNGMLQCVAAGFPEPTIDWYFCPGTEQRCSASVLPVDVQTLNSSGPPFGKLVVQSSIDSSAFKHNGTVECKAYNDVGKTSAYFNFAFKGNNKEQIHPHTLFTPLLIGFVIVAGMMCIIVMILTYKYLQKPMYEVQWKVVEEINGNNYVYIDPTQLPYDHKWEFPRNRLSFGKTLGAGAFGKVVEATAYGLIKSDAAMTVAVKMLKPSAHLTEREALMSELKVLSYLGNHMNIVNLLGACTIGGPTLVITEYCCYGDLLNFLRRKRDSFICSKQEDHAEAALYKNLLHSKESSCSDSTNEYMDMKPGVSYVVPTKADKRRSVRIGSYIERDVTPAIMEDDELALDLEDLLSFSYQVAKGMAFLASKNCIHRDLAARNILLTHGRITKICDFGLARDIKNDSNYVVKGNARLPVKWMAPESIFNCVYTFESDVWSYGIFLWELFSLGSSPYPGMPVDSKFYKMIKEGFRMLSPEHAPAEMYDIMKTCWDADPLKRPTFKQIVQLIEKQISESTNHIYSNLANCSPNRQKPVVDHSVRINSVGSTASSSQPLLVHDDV

Regarding `Cc1ccc(-c2noc([C@H]3C[C@@H]3F)n2)cc1NC(=O)n1c(=O)[nH]c2ccccc21` [Example 86], the pIC50 is under 6.00.

On to `Cc1ccc(-c2noc([C@H]3C[C@@H]3F)n2)cc1NC(=O)c1cnc2ncsc2c1` [Example 50], for which the pIC50 is under 6.00.

Take `Cc1ccc(-c2noc([C@H]3C[C@@H]3F)n2)cc1NC(=O)c1cnc2nccn2c1` [Example 46]: the pIC50 is under 6.00.

For the molecule `Cc1ccc(-c2noc([C@H]3C[C@@H]3F)n2)cc1NC(=O)c1cnc2[nH]ncc2c1` [Example 31], the pIC50 is under 6.00.

Take `O=C(Nc1cn(-c2ccc(C3CC3)cc2)nc1C(F)F)c1cnn2ccc(N3CC4(COC4)C3)cc12` [compound 373]: the pIC50 is under 6.00.

For the molecule `Cc1ccc(-c2noc([C@H]3C[C@@H]3F)n2)cc1NC(=O)c1cnc2[nH]ccc2c1` [Example 33], the pIC50 was under 6.00.

On to `Cc1ccc(-c2noc([C@H]3C[C@@H]3F)n2)cc1NC(=O)c1cnc2c(cnn2C(=O)C(C)C)c1` [Example 32], for which the pIC50 was under 6.00.

As to `Cc1ccc(-c2noc([C@H]3C[C@@H]3F)n2)cc1NC(=O)c1cnn2cc(Cl)c(N3CC4(COC4)C3)cc12` [Example 229], the pIC50 was 6.00 to 7.00.

In the case of `Cc1ccc(-c2noc([C@H]3C[C@@H]3F)n2)cc1NC(=O)c1cnc2ccncc2c1` [Example 64], the pIC50 is under 6.00.

Take `Cc1ccc(-c2noc([C@H]3C[C@@H]3F)n2)cc1NC(=O)c1cnc2sccc2c1` [Example 29]: the pIC50 was under 6.00.

`Cc1ccc(-c2noc([C@H]3C[C@@H]3F)n2)cc1NC(=O)c1cn(-c2ccccc2)nc1C` [Example 53]: the pIC50 was under 6.00.

As for `Cc1ccc(-c2noc([C@H]3C[C@@H]3F)n2)cc1NC(=O)c1csc2cncnc12` [Example 19], the pIC50 is under 6.00.

For the molecule `Cc1ccc(-c2noc([C@H]3C[C@@H]3F)n2)cc1NC(=O)c1cnn2ccc(C(=O)NC3CCCCC3)cc12` [Example 91], the pIC50 was 6.00 to 7.00.

As for `Cc1ccc(-c2noc([C@H]3C[C@@H]3F)n2)cc1NC(=O)c1cnc2ccccc2n1` [Example 65], the pIC50 was under 6.00.

For `Cc1ccc(-c2noc([C@H]3C[C@@H]3F)n2)cc1NC(=O)c1cnn2cc(-c3cnn(C(C)(C)CO)c3)ccc12` [Example 141], the pIC50 is over 7.00.

`Cc1ccc(-c2noc([C@H]3C[C@@H]3F)n2)cc1NC(=O)c1cnc2cccn2c1` [Example 45]: the pIC50 was under 6.00.

As to `Cc1ccc(-c2noc([C@H]3C[C@@H]3F)n2)cc1NC(=O)c1cnn(-c2ccccc2)n1` [Example 83], the pIC50 was under 6.00.

Turning to `Cc1ccc(-c2noc([C@H]3C[C@@H]3F)n2)cc1NC(=O)c1cnc2cn[nH]c2c1` [Example 48], the pIC50 is under 6.00.

Consider `Cc1ccc(-c2noc([C@H]3C[C@@H]3F)n2)cc1NC(=O)c1cnc(-c2ccc3nn(CC(C)(C)O)cc3c2)o1` [Example 308-66], for which the pIC50 is over 7.00.

In the case of `Cc1ccc(-c2noc([C@H]3C[C@@H]3F)n2)cc1NC(=O)c1cncn1-c1ccccc1` [Example 17], the pIC50 is under 6.00.

As to `COc1cccc(-n2cc(C(=O)Nc3cc(-c4noc([C@H]5C[C@@H]5F)n4)ccc3C)cn2)c1` [Example 80], the pIC50 was 6.00 to 7.00.

With `Cc1ccc(-c2noc([C@H]3C[C@@H]3F)n2)cc1NC(=O)c1cnn2c1CCCC2` [Example 9], the negative-log IC50 (pIC50) is under 6.00.

Consider `Cc1ccc(-c2noc([C@H]3C[C@@H]3F)n2)cc1NC(=O)c1cnn2cc(-c3cn(C(F)F)nn3)ccc12` [Example 107], for which the pIC50 is over 7.00.

For `Cc1ccc(-c2noc([C@H]3C[C@@H]3F)n2)cc1NC(=O)c1cnc2n1CCOc1ccccc1-2` [Example 101], the pIC50 is 6.00 to 7.00.

On to `Cc1ccc(-c2noc([C@H]3C[C@@H]3F)n2)cc1NC(=O)c1cnn2cc(-c3cnn(C(F)F)c3)ccc12` [Example 133], for which the pIC50 was over 7.00.

Regarding `C#Cc1ccc2c(C(=O)Nc3cc(-c4noc([C@H]5C[C@@H]5F)n4)ccc3C)cnn2c1` [Example 106], the pIC50 was over 7.00.

Consider `Cc1ccc(-c2noc([C@H]3C[C@@H]3F)n2)cc1NC(=O)c1cnn(-c2ccccn2)c1` [Example 75], for which the pIC50 was 6.00 to 7.00.

Take `Cc1ccc(-c2noc([C@H]3C[C@@H]3F)n2)cc1NC(=O)c1cnc(-c2ccccc2F)s1` [Example 24]: the pIC50 was 6.00 to 7.00.

Take `Cc1ccc(-c2noc([C@H]3C[C@@H]3F)n2)cc1NC(=O)c1cnn2ncccc12` [Example 18]: the pIC50 is under 6.00.

For `Cc1ccc(-c2noc([C@H]3C[C@@H]3F)n2)cc1NC(=O)c1cnn2cc(-c3ccn(C(F)F)n3)ccc12` [Example 134], the pIC50 was over 7.00.

As for `COc1ccccc1-c1ncc(C(=O)Nc2cc(-c3noc([C@H]4C[C@@H]4F)n3)ccc2C)[nH]1` [Example 78], the pIC50 is under 6.00.

As for `Cc1ccc(-c2noc([C@H]3C[C@@H]3F)n2)cc1NC(=O)c1cnc2ncccn12` [Example 25], the pIC50 was under 6.00.

As to `Cc1ccc(-c2noc([C@H]3C[C@@H]3F)n2)cc1NC(=O)c1cn(-c2ccccc2)nn1` [Example 22], the pIC50 was under 6.00.

`Cc1ccc(-c2noc([C@H]3C[C@@H]3F)n2)cc1NC(=O)c1cn[nH]c1-c1ccccc1` [Example 79]: the pIC50 was 6.00 to 7.00.

For `Cc1ccc(-c2noc([C@H]3C[C@@H]3F)n2)cc1NC(=O)c1cnc(-c2ccccc2)[nH]1` [Example 77], the pIC50 was under 6.00.

For `Cc1ccc(-c2noc([C@H]3C[C@@H]3F)n2)cc1NC(=O)c1ccnc2cnccc12` [Example 8], the pIC50 is under 6.00.

With `Cc1ccc(-c2noc([C@H]3C[C@@H]3F)n2)cc1NC(=O)c1cnn2c1ccc1ccccc12` [Example 88], the pIC50 was 6.00 to 7.00.

For the molecule `Cc1ccc(-c2noc([C@H]3C[C@@H]3F)n2)cc1NC(=O)c1nnc2ccccn12` [Example 20], the negative-log IC50 (pIC50) is under 6.00.

For `Cc1ccc(-c2noc([C@H]3C[C@@H]3F)n2)cc1NC(=O)c1cnn(-c2cccc(Br)c2)c1` [Example 82], the pIC50 was under 6.00.

On to `Cc1ccc(-c2noc([C@H]3C[C@@H]3F)n2)cc1NC(=O)c1cnc(-c2ccc3c(cnn3CC(C)(C)O)c2)o1` [Example 308-65], for which the pIC50 was over 7.00.

For the molecule `Cc1ccc(-c2noc([C@H]3C[C@@H]3F)n2)cc1NC(=O)c1ccnc2ccnn12` [Example 26], the pIC50 is under 6.00.

As to `Cc1ccc(-c2noc([C@H]3C[C@@H]3F)n2)cc1NC(=O)c1cnn2cc(-c3cnn(CC(C)(C)O)c3)ccc12` [Example 143], the pIC50 was over 7.00.

For the molecule `Cc1ccc(-c2noc([C@H]3C[C@@H]3F)n2)cc1NC(=O)c1cnc2c(c1)ncn2C(=O)C(C)C` [Example 67], the pIC50 is under 6.00.

For `Cc1ccc(-c2noc([C@H]3C[C@@H]3F)n2)cc1NC(=O)c1cnn(-c2ccc(Cl)cc2)c1` [Example 51], the pIC50 is under 6.00.

As to `Cc1ccc(-c2noc([C@H]3C[C@@H]3F)n2)cc1NC(=O)c1ccnc2ncccc12` [Example 12], the pIC50 is under 6.00.

Take `Cc1ccc(-c2noc([C@H]3C[C@@H]3F)n2)cc1NC(=O)c1cnn(-c2ccccc2Cl)c1` [Example 76]: the pIC50 is under 6.00.

As to `Cc1ccc(-c2noc([C@H]3C[C@@H]3F)n2)cc1NC(=O)c1cnc2ccnn2c1` [Example 47], the pIC50 is under 6.00.

As to `Cc1ncc(-c2nnn(C3CN(C(=O)C4CC4)C3)n2)cc1NC(=O)c1cnn2ccc(N3CC4(C3)CC(O)(C(F)F)C4)cc12` [Example 312-10], the pIC50 is 6.00 to 7.00.

Consider `Cc1ccc(-c2noc([C@H]3C[C@@H]3F)n2)cc1NC(=O)c1cnn2cc(-c3cnn(CCO)c3)ccc12` [Example 139], for which the pIC50 is over 7.00.

Consider `Cc1ccc(-c2noc([C@H]3C[C@@H]3F)n2)cc1NC(=O)c1nnn2ccccc12` [Example 21], for which the pIC50 was under 6.00.

Turning to `Cc1ccc(-c2noc([C@H]3C[C@@H]3F)n2)cc1NC(=O)c1cnn(-c2cccc(NC(=O)OC(C)(C)C)c2)c1` [Example 87], the pIC50 is under 6.00.

Consider `Cc1ccc(-c2noc([C@H]3C[C@@H]3F)n2)cc1NC(=O)c1cnc(-c2ccccc2)s1` [Example 84], for which the pIC50 was 6.00 to 7.00.

On to `Cc1ccc(-c2noc([C@H]3C[C@@H](OC(F)F)C3)n2)cc1NC(=O)c1cnn2ccc(N3CC4(COC4)C3)cc12` [Example 242], for which the pIC50 was over 7.00.

Take `Cc1ccc(-c2noc([C@H]3C[C@@H]3F)n2)cc1NC(=O)c1cn2ccsc2n1` [Example 68]: the pIC50 was under 6.00.

Regarding `Cc1ccc(-c2noc([C@H]3C[C@@H]3F)n2)cc1NC(=O)c1cnn(-c2cccc(Cl)c2)c1` [Example 81], the pIC50 is under 6.00.

As to `Cc1ccc(-c2noc([C@H]3C[C@@H]3F)n2)cc1NC(=O)c1cnc2cnccn12` [Example 1], the pIC50 is 6.00 to 7.00.

As for `Cc1ccc(-c2noc([C@H]3C[C@@H]3F)n2)cc1NC(=O)c1cnn(C)c1C` [Example 11], the pIC50 is under 6.00.

For the molecule `Cc1ccc(-c2noc([C@H]3C[C@@H]3F)n2)cc1NC(=O)c1cnc2n1CCCC2` [Example 10], the pIC50 was 6.00 to 7.00.

Turning to `Cc1ccc(-c2noc([C@H]3C[C@@H]3F)n2)cc1NC(=O)c1cnc2cnccc2c1` [Example 63], the pIC50 is under 6.00.
